Key:
HCT116 = experiment: Toxicity test on cells, HCT116; type: cell-based; conditions: Homo sapiens, HCT-116; 48 hours of treatment, Hoechst nuclei staining
Description: (§1) The compounds according to the invention were also tested on the cell lines HuH7, CaCo-2, HCT116, PC3, NCl, HacaT and Fibroblasts.
(§2) Operating Procedure: The cells were cultivated according to the ECACC recommendations. The toxicity test of the compounds on these cells was conducted as follows: 4×10^3 cells/well were sown in 96 wells. 24 hours after sowing the cells, the cells were exposed to increased concentrations of the compounds (0.1 μM-0.3 μM-0.9 μM-2.7 μM-8.3 μM-25 μM). After 48 hours of treatment, the cells were washed in PBS and bound in a cold ethanol/acetic acid (90/5) mixture for 20 minutes. Next, the nuclei were coloured with […] (Sigma). The acquisition of images and the analysis was carried out by means of a reader Cellomics ArrayScan VTI/HCS (Thermo Scientific).

PC3 = experiment: Toxicity test on cells, PC3; type: cell-based; conditions: Homo sapiens, PC-3; 48 hours of treatment, Hoechst nuclei staining
Description: as §1, §2

CaCo2 = experiment: Toxicity test on cells, CaCo2; type: cell-based; conditions: Homo sapiens, Caco-2; 48 hours of treatment, Hoechst nuclei staining
Description: as §1, §2

mTOR = mTOR (Homo sapiens, UniProt P42345); experiment: mTOR kinase activity, LANCE Ultra TR-FRET; type: biochemical; conditions: truncated mTOR protein, triplicate; read-out: Kinases IC50 mTOR
Chain of mTOR (P42345 1360-2549): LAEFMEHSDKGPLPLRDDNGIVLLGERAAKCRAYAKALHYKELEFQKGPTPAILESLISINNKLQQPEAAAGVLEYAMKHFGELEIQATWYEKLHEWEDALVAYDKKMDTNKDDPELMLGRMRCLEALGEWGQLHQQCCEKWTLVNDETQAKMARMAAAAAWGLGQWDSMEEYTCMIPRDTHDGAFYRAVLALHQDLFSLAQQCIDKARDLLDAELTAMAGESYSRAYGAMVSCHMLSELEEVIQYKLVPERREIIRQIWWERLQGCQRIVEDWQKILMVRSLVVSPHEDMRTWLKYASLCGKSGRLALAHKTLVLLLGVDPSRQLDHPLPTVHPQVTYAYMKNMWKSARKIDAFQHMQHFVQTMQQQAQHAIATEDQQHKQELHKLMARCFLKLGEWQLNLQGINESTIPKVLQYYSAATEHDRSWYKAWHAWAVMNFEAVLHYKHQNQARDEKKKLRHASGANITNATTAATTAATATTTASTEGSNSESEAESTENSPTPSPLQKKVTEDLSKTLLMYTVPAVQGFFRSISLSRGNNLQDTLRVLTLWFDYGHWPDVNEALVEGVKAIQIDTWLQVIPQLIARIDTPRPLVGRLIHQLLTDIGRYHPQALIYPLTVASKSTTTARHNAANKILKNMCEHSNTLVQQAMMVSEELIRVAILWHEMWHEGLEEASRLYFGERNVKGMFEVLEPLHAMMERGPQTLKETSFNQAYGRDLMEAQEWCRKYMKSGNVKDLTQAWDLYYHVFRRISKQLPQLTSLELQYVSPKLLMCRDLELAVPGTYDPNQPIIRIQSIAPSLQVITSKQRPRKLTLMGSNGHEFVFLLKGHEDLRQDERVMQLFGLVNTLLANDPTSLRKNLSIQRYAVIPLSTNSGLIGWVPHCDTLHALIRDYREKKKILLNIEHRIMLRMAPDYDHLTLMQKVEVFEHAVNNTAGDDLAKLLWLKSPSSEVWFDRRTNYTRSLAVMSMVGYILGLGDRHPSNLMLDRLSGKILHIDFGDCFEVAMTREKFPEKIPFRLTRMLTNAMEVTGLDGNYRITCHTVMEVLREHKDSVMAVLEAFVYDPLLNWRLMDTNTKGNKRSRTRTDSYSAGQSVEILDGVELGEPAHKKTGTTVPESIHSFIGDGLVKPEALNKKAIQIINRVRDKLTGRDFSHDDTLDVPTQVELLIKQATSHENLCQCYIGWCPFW
Description: The activity of the mTOR kinase was evaluated by using a purified truncated protein of the amino acids 1-1359 (reference: PV4753 from Invitrogen). The assay of the activity of the enzyme was carried out with the kit LANCE® Ultra which is an enzymatic test based on the detection of a phosphorylated peptide produced during the reaction, by using the fluorescence technique TR-FRET. It took place in a 384-well plate and was able to be divided into two phases: an enzymatic reaction phase and a phase for detecting the phosphorylated peptide.
During the enzymatic reaction phase, the following components were mixed in 10 μL of a same well: 5 μL of each dilution in series of inhibitors taken up in DMSO and then diluted to 1/25 in the reaction buffer (50 mM HEPES pH 7.5, 0.1% Tween-20, 1 mM EGTA, 10 mM MnCl2, 3 mM MgCl2 and 2 mM of DTT), 2.5 μL of a solution containing mTOR at the optimum concentration (concentration defined according to the optimization step described in the operating procedure of the kit) diluted in the same reaction buffer, and finally 2.5 μL of a solution containing 40 μM of ATP and 200 μM non-phosphorylated peptide diluted in the reaction buffer. For each inhibitor concentration, the reaction was conducted in three copies (triplicate). The reaction was then incubated for 120 min at room temperature without any stirring in darkness.
During the phase for detecting the phosphorylated peptide, 5 μL of an EDTA solution (32 mM) diluted in the dilution buffer (ref.: CR97-100 from Perkin Elmer) were injected into each well. After 5 min of incubation with stirring, 5 μL of a phosphorylated anti-peptide antibody solution labeled with europium (8 nM) and diluted in the same dilution buffer was added into each well. After 60 min of incubation at room temperature with stirring (40 rpm) in darkness, the 384-well plates were read in a plate reader Victor V configured for HTRF (Perkin Elmer). […] The inhibition curve was then plotted according to the fluorescence intensity value at 665 nm versus the inhibitor concentration.
The amount of inhibitor required for causing a 50% variation in the intensity of the signal corresponds to the IC50 value of the inhibitor.

PI3Kδ = PI3Kδ (Homo sapiens, UniProt O00329); experiment: PI3Kδ kinase activity, Adapta TR-FRET ADP detection; type: biochemical; conditions: purified p110δ/p85α heterodimer; read-out: Kinases IC50 PI3Kδ
Chain of PI3Kδ (O00329 whole entry): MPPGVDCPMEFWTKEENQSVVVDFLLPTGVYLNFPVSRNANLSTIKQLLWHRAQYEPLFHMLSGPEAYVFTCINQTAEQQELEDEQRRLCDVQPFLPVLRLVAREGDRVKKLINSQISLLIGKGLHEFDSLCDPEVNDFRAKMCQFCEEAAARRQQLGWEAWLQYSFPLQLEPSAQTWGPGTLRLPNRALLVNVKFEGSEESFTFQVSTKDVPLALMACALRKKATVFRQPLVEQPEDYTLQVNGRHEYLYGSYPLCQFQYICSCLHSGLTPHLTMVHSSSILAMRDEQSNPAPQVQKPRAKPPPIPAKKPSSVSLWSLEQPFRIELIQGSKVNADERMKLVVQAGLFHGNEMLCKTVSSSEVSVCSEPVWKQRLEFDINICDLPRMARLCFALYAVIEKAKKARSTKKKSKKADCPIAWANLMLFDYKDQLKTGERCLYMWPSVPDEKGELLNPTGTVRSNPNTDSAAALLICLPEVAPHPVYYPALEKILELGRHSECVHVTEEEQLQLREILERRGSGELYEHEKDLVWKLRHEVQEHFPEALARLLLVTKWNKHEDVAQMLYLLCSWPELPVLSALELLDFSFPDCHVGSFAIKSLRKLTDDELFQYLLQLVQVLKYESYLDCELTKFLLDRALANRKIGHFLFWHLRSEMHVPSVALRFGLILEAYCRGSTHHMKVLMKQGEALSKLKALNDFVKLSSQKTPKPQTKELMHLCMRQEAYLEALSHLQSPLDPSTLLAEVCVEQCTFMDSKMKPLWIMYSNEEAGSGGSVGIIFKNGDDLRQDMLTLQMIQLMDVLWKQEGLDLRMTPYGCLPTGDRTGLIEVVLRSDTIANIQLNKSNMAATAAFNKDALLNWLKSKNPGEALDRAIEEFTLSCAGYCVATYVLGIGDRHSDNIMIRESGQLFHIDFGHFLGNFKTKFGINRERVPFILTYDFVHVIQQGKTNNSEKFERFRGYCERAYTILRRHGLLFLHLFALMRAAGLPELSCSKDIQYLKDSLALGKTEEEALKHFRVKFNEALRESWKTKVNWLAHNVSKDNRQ
Chain of PI3Kδ (P27986 whole entry partner): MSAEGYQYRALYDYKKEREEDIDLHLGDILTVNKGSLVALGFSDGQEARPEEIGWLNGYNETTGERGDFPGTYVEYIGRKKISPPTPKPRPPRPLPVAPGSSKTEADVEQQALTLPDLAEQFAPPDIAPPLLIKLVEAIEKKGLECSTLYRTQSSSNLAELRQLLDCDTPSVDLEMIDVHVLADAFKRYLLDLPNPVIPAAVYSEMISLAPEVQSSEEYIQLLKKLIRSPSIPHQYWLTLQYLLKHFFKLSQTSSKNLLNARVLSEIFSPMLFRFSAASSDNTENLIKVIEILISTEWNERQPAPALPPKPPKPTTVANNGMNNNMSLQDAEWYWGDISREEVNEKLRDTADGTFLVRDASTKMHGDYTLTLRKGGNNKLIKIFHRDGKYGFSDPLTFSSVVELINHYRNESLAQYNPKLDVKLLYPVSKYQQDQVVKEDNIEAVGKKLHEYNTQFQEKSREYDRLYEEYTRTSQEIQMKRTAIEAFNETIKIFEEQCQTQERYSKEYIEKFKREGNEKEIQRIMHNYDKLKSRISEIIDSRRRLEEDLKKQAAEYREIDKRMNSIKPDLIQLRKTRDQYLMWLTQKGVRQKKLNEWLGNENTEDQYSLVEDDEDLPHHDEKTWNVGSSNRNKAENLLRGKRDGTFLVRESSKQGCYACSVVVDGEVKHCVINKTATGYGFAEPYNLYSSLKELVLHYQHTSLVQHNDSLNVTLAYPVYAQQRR
Description: (§3) The activity of the PI3Kα kinase was evaluated by using a purified heterodimer (reference: PV4788 from Invitrogen) consisting of the α catalytic p110 subunit (PIK3CA) and the α regulation p85 subunit (PIK3R1). The assay of the kinase with the kit Adapta™ (reference: PV5099 from Invitrogen) is an enzymatic test based on the detection of ADP, produced during the reaction, by the fluorescence technique TR-FRET. It took place in a 384-well plate and was able to be divided into two phases: an enzymatic reaction phase, and a phase for detecting the ADP level.
(§4) During the enzymatic reaction phase, the following components were mixed in 10 μL of a same well: 2.5 μL of each dilution in series of inhibitors taken up in DMSO and then diluted to 1/25 in the reaction buffer (250 mM HEPES pH 7.5, 500 mM NaCl, 0.15 CHAPS, 5 mM EGTA, 15 mM MgCl2 and 1 mM DTT, ref.: PV5101 from Invitrogen), 2.5 μL of a solution containing PI3K at the optimum concentration (concentration defined according to the optimization step described in the operating procedure of the kit) diluted in the same reaction buffer, and finally, 5 μL of a solution containing 20 μM ATP and 100 μM PIP2 diluted in the reaction buffer. For each inhibitor concentration, the reaction was conducted in three copies (triplicate). The reaction was then incubated for 60 min at room temperature without any stirring in darkness.
(§5) During the phase for detecting ADP, 5 μL of a detection solution containing an anti-ADP antibody labeled with europium (6 nM), a tracer of the Alexa Fluor® 647 type coupled with ADP (30 nM), and EDTA (30 mM, for stopping the kinase reaction) were diluted in the dilution buffer (reference: PV3574 from Invitrogen). After 30 min of incubation at room temperature with stirring (40 rpm) in darkness, the 384-well plates were read in a plate reader Victor V configured for HTRF (Perkin Elmer). The excitation was produced at 340 nm and emission was measured at 665 nm and 615 nm. The inhibition curve was then plotted according to the emission ratio at 665 nm/615 nm versus the inhibitor concentration.
(§6) In order to obtain a linear response of the signal, a titration curve ATP-ADP, corresponding to the conversion % of ATP into ADP, was achieved by varying both of these species while keeping [ADP]+[ATP]=10 μM. The emission ratio at 665 nm/615 nm resulting from this (Y) was plotted versus the conversion % of ATP into ADP (X). The data of this curve were formatted according to a model with three hyperbolic parameters from the following equation: Y=C+A*(1−(X/(B+X))).
(§7) The software package GraphPad™ Prism® thus allows calculation of the parameters A, B and C. A conversion % corresponds to an emission ratio 665 nm/615 nm, this percentage is calculated by using the following equation: Conversion %=B*(C+A−Ratio)/(Ratio−C)
(§8) The three parameters A, B and C having been defined by the preceding equation, the conversion % was therefore able to be plotted versus the inhibitor concentration. The amount of inhibitor required for causing a 50% variation in the % conversion of ATP into ADP corresponds to the IC50 value of the inhibitor.
(§9) The activity of the kinase PI3Kγγ (PV4786 from Invitrogen) was evaluated on the p110γγ catalytic subunit (PI3KCG) and that of the kinase PI3Kδδ on the purified heterodimer (PV5273) respectively consisting of the δδ catalytic p110 subunit (PIK3CD) and the α regulation p85 subunit (PIK3R1) by following the same procedure.

HUH7 = experiment: Toxicity test on cells, HUH7; type: cell-based; conditions: Homo sapiens, Huh-7; 48 hours of treatment, Hoechst nuclei staining
Description: as §1, §2

PI3Kγ = PI3Kγ (Homo sapiens, UniProt P48736); experiment: PI3Kγ kinase activity, Adapta TR-FRET ADP detection; type: biochemical; conditions: p110γ catalytic subunit; read-out: Kinases IC50 PI3Kγ
Description: as §3, §4, §5, §6, §7, §8, §9

Fibroblasts = experiment: Toxicity test on cells, Fibroblasts; type: cell-based; conditions: Fibroblast; 48 hours of treatment, Hoechst nuclei staining
Description: as §1, §2

MDA = experiment: Toxicity test on cells, MDA; type: cell-based; conditions: 48 hours of treatment, Hoechst nuclei staining
Description: [The procedure below names another cell line; the source lists this cell line under the same test.] as §1, §2

NCl = experiment: Toxicity test on cells, NCl; type: cell-based; conditions: 48 hours of treatment, Hoechst nuclei staining
Description: as §1, §2

PI3Kα = PI3Kα (Homo sapiens, UniProt P42336); experiment: PI3Kα kinase activity, Adapta TR-FRET ADP detection; type: biochemical; conditions: purified p110α/p85α heterodimer, triplicate; read-out: Kinases IC50 PI3Kα
Chain of PI3Kα (P42336 whole entry): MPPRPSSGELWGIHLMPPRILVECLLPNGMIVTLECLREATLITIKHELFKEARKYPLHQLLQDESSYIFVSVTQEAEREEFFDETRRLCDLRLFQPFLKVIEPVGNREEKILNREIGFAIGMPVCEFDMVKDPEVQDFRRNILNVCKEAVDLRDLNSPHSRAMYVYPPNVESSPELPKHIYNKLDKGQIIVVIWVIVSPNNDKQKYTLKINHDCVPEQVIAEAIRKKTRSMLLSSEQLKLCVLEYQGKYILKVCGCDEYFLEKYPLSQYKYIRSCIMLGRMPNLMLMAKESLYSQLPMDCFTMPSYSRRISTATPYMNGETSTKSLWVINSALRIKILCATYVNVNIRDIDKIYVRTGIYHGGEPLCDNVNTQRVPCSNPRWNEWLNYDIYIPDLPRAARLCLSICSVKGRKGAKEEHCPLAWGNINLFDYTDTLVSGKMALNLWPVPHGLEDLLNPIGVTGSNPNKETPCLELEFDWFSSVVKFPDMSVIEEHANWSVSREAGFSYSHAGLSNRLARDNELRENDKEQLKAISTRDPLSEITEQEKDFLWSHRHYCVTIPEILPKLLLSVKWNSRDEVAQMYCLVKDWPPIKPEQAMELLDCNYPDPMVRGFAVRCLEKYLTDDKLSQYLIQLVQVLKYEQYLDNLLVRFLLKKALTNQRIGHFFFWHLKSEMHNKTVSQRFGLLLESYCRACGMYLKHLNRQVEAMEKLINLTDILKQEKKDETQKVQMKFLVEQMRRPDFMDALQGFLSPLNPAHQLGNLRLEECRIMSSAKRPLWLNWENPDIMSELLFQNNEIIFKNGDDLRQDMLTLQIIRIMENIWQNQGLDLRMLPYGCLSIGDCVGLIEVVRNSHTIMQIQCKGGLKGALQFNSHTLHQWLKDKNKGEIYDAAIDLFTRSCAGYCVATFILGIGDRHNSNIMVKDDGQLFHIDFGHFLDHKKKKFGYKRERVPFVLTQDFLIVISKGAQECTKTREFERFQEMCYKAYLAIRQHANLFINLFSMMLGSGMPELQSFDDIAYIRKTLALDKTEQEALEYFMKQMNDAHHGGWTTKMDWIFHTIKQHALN
Chain of PI3Kα (P27986 whole entry partner): as the sequence (P27986 whole entry partner) above
Description: as §3, §4, §5, §6, §7, §8

HacaT = experiment: Toxicity test on cells, HacaT; type: cell-based; conditions: Homo sapiens, 48 hours of treatment, Hoechst nuclei staining
Description: as §1, §2

Row | SMILES | IC50 (mTOR) [nM] | IC50 (PI3Kδ) [nM] | IC50 (PI3Kγ) [nM] | IC50 (PI3Kα) [nM] | IC50 (HCT116) [nM] | IC50 (PC3) [nM] | IC50 (CaCo2) [nM] | IC50 (HUH7) [nM] | IC50 (Fibroblasts) [nM] | IC50 (MDA) [nM] | IC50 (NCl) [nM] | IC50 (HacaT) [nM]
1 | OCC(O)c1cnc2c(N3CCOCC3)nc(-c3cccc(O)c3)nc2c1 (stereo not drawn) [Compound 22, 1-(2-(3-hydroxyphenyl)-4-morpholinopyrido[3,2-d]pyrimidin-7-yl)ethane-1,2-diol] | 460 | 41 | 344 | 82 | 5000 | 4000 | 4000 | > 25000 | > 25000 | 10000 | > 25000 | 
2 | OCc1cnc2c(N3CCOCC3)nc(-c3cccc(O)c3)nc2c1 [Compound 34, 3-(7-(hydroxymethyl)-4-morpholinopyrido[3,2-d]pyrimidin-2-yl)phenol] | 350 | 126 | 22 | 366 | 3000 | 5000 | 1500 | 1000 | 25000 | 25000 | > 25000 | 
3 | Oc1cccc(-c2nc(N3CCOCC3)c3ncc(Cn4cc(CF)nn4)cc3n2)c1 [Compound 61, 3-(7-{[4-(fluoromethyl)-1H-1,2,3-triazol-1-yl]methyl}-4-(morpholin-4-yl)pyrido[3,2-d]pyrimidin-2-yl)phenol] |  |  |  | 391 |  |  |  |  |  |  |  | 
4 | C=Cc1cnc2c(N3CCOCC3)nc(-c3cccc(CO)c3)nc2c1 [Compound 17, (3-(4-Morpholino-7-vinylpyrido[3,2-d]pyrimidin-2-yl)phenyl)methanol] |  |  |  |  | 6000 | 25000 | 5000 | 15000 | > 25000 | > 25000 | > 25000 | 4000
5 | C=Cc1cnc2c(N3CCOCC3)nc(-c3cccc(O)c3)nc2c1 [Compound 14, 3-(4-morpholino-7-vinylpyrido[3,2-d]pyrimidin-2-yl)phenol] | 109 | 11 | 196 | 98 | 5000 | 20000 | 1500 | 20000 | > 25000 | 20000 | 20000 | 
6 | COCOCc1cn(Cc2cnc3c(N4CCOCC4)nc(-c4cccc(O)c4)nc3c2)nn1 [Compound 59, 3-[7-({4-[(methoxymethoxy)methyl]-1H-1,2,3-triazol-1-yl}methyl)-4-(morpholin-4-yl)pyrido[3,2-d]pyrimidin-2-yl]phenol] |  |  |  | 116 |  |  |  |  |  |  |  | 

Continued by falling IC50 (PI3Kα), values first:

Row | IC50 (mTOR) [nM] | IC50 (PI3Kδ) [nM] | IC50 (PI3Kγ) [nM] | IC50 (PI3Kα) [nM] | SMILES | IC50 (HCT116) [nM] | IC50 (PC3) [nM] | IC50 (CaCo2) [nM] | IC50 (HUH7) [nM] | IC50 (Fibroblasts) [nM] | IC50 (MDA) [nM] | IC50 (NCl) [nM] | IC50 (HacaT) [nM]
7 | 1900 | 81 | 563 | 57 | O=CCCc1cnc2c(N3CCOCC3)nc(-c3cccc(O)c3)nc2c1 [Compound 46] |  |  |  |  |  |  |  | 
8 |  |  |  | 56 | CS(=O)(=O)N1CCN(Cc2cnc3c(N4CCOCC4)nc(-c4cccc(O)c4)nc3c2)CC1 [Compound 55, 3-{7-[(4-methanesulfonylpiperazin-1-yl)methyl]-4-(morpholin-4-yl)pyrido[3,2-d]pyrimidin-2-yl}phenol] |  |  |  |  |  |  |  | 
9 | 820 | 340 | 127 | 51 | N#CCc1cnc2c(N3CCOCC3)nc(-c3cccc(O)c3)nc2c1 [Compound 41, 2-(2-(3-hydroxyphenyl)-4-morpholinopyrido[3,2-d]pyrimidin-7-yl)acetonitrile] |  |  |  |  |  |  |  | 
10 | 71 | 10 | > 50000 | 47 | O=Cc1cnc2c(N3CCOCC3)nc(-c3cccc(O)c3)nc2c1 [Compound 20, 2-(3-hydroxyphenyl)-4-morpholinopyrido[3,2-d]pyrimidine-7-carbaldehyde] | 6000 | 25000 | 4000 | 20000 | > 25000 | 20000 | > 25000 | 
11 |  |  |  | 38 | CN(C)Cc1cn(Cc2cnc3c(N4CCOCC4)nc(-c4cccc(O)c4)nc3c2)nn1 [Compound 58, 3-[7-({4-[(dimethylamino)methyl]-1H-1,2,3-triazol-1-yl}methyl)-4-(morpholin-4-yl)pyrido[3,2-d]pyrimidin-2-yl]phenol] |  |  |  |  |  |  |  | 
12 |  |  |  | 18 | COCc1cn(Cc2cnc3c(N4CCOCC4)nc(-c4ccc(NC(=O)NCC(F)(F)F)cc4)nc3c2)nn1 [Compound 82, 1-[4-(7-{[4-(methoxymethyl)-1H-1,2,3-triazol-1-yl]methyl}-4-(morpholin-4-yl)pyrido[3,2-d]pyrimidin-2-yl)phenyl]-3-(2,2,2-trifluoroethyl)urea] |  |  |  |  |  |  |  | 
13 | 135 | 63 | 399 | 10 | O=C(O)c1cnc2c(N3CCOCC3)nc(-c3cccc(O)c3)nc2c1 [Compound 42, 2-(3-hydroxyphenyl)-4-morpholinopyrido[3,2-d]pyrimidine-7-carboxylic acid] |  |  |  |  |  |  |  | 

From US10202372B2, “Trisubstituted pyrido[2,3-D]pyrimidines, methods for preparing same and therapeutic uses thereof” (CENTRE NATIONAL DE LA RECHERCHE SCIENTIFIQUE (C.N.R.S), priority 2012, dated 2019)
